Measured values reported in patent US9388141B2, “Acylaminocycloalkyl compounds suitable for treating disorders that respond to modulation of dopamine D3 receptor” (AbbVie Deutschland GmbH & Co. KG, priority 2013, dated 2016).

Key:
[1] = biological target: T1, human dopamine D2L receptors (long isoform) (Homo sapiens, UniProt P14416); assay: Dopamine D2L receptor binding, [125I]-iodospiperone displacement; settings: selectivity ratio Ki (D2L)/Ki (D3)
T1 construct: expressed in transfected cells; host or cells: HEK-293
Experimental: (§1) The substance to be tested was either dissolved in methanol/Chremophor® (BASF SE) or in dimethyl sulfoxide and then diluted with water to the desired concentration.
(§2) Each assay mixture was run in triplicate. • The incubation buffer contained 50 mM tris, 120 mM NaCl, 5 mM KCl, 2 mM CaCl2, 2 mM MgCl2 and 0.1% bovine serum albumin, 10 μM quinolone and 0.1% ascorbic acid (prepared fresh daily). […] Each assay mixture was run in triplicate. • The incubation buffer contained 50 mM tris, 120 mM NaCl, 5 mM KCl, 2 mM CaCl2, 2 mM MgCl2 and 0.1% bovine serum albumin. The buffer was adjusted to pH 7.4 with HCl. c) Measurement and Analysis: • After having been incubated at 25° C. for 60 minutes, the assay mixtures were filtered through a Whatman GF/B glass fiber filter under vacuum using a cell collecting device. The filters were transferred to scintillation viols using a filter transfer system. After 4 ml of Ultima Gold® (Packard) have been added, the samples were shaken for one hour and the radioactivity was then counted in a Beta-Counter (Packard, Tricarb 2000 or 2200CA).

[2] = biological target: T2, human dopamine D3 receptors (Homo sapiens, UniProt P35462); assay: Dopamine D3 receptor binding, [125I]-iodosulpride displacement; settings: membranes of HEK-293 cells with human D3 receptors, 0.1 nM [125I]-iodosulpride
T2 construct: expressed in transfected cells; host or cells: HEK-293
Experimental: as §1, §2

[3] = Determination of the microsomal half-life / microsomal clearance; type: in vitro ADME; settings: human liver microsomes, 0.5 μM test substance, 0.25 mg microsomal protein/ml, pH 7.4, 37° C.
Experimental: The metabolic stability of the compounds of the invention was determined in the following assay.
The test substances were incubated in a concentration of 0.5 μM as follows:
0.5 μM test substance are preincubated together with liver microsomes from different species (from rat, human or other species) (0.25 mg of microsomal protein/ml) in 0.05 M potassium phosphate buffer of pH 7.4 in microtiter plates at 37° C. for 5 min. The reaction is started by adding NADPH (1 mg/mL). After 0, 5, 10, 15, 20 and 30 min, 50 μl aliquots are removed, and the reaction is immediately stopped and cooled with the same volume of acetonitrile. The samples are frozen until analyzed. The remaining concentration of undegraded test substance is determined by MSMS. The half-life (T1/2) is determined from the gradient of the signal of test substance/unit time plot, it being possible to calculate the half-life of the test substance, assuming first order kinetics, from the decrease in the concentration of the compound with time. The microsomal clearance (mCl) is calculated from mCl=1n2/T1/2/(content of microsomal protein in mg/ml)×1000 [[…]] (modified from references: Di, The Society for Biomoleculur Screening, 2003, 453-462; Obach, DMD, 1999 vol 27. N 11, 1350-1359).

hERG cardiac K+ channel = biological target: T3, hERG cardiac K+ channel (Homo sapiens, UniProt Q12809); assay: Blocking the hERG channel, [3H]dofetilide displacement; type: binding; settings: membrane homogenate of HEK 293 cells with hERG K+ channels
T3 construct: expressed in transfected cells; host or cells: HEK-293
Experimental: The binding affinity of test drugs for the hERG cardiac K^+ channel was determined by their ability to displace tritiated dofetilide (a class III antiarrhythmic drug and potent hERG blocker) in membrane homogenates from HEK-293 cells heterogeneously expressing the hERG channel. The assay was performed as previously described G. J. Diaz et al., Journal of Pharmacological and Toxicological Methods, 50 (2004), 187-199). For this, drug dilutions were prepared from 10 mM DMSO stocks and the following were added to a 96-well polystyrene plate (Perkin-Elmer Optiplate): 20 μl of assay binding buffer (for total bounds), or […] astemizole (for non-specific bounds), or test drug, 50 μl of [^3H]dofetilide (20 nM, ˜80 Ci/mmol specific activity), and 130 μl of membrane homogenate from HEK 293 cells stably transfected with hERG K^+ channels (final protein concentration of 30 μg per well). The plates were incubated at ambient temperature for […], aspirated onto GF/B filter plates (Perkin-Elmer), and washed with 2 ml of cold wash buffer. After allowing the plates to dry, 50 μl of scintillant (Perkin-Elmer MicroScint 20) were added to each well and the radioactivity was counted in a Perkin-Elmer Topcount NXT scintillation counter. […]

T2 sequence (P35462 whole entry): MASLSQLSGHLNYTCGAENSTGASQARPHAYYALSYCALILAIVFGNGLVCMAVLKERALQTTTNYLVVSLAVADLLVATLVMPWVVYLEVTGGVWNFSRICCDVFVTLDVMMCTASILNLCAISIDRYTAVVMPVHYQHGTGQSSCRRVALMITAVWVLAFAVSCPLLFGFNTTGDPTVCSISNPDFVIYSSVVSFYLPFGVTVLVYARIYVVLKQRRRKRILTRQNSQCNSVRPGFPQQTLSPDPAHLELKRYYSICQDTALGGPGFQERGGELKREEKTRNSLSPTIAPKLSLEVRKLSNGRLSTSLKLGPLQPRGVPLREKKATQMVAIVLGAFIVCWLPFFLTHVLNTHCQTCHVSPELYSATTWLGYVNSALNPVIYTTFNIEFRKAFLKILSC
T1 sequence (P14416 whole entry, canonical isoform): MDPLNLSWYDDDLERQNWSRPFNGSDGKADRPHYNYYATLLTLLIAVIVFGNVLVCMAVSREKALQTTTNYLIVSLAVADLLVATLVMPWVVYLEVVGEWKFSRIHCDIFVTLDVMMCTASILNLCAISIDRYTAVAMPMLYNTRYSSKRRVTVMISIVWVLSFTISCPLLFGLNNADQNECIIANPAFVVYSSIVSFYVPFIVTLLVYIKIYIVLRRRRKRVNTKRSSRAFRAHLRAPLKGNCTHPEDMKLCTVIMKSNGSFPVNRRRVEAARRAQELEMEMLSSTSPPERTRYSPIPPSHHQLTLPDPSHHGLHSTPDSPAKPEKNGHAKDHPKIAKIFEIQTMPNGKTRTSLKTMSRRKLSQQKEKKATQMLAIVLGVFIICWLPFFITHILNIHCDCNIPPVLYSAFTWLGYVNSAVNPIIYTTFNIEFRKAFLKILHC
T3 sequence (Q12809 whole entry): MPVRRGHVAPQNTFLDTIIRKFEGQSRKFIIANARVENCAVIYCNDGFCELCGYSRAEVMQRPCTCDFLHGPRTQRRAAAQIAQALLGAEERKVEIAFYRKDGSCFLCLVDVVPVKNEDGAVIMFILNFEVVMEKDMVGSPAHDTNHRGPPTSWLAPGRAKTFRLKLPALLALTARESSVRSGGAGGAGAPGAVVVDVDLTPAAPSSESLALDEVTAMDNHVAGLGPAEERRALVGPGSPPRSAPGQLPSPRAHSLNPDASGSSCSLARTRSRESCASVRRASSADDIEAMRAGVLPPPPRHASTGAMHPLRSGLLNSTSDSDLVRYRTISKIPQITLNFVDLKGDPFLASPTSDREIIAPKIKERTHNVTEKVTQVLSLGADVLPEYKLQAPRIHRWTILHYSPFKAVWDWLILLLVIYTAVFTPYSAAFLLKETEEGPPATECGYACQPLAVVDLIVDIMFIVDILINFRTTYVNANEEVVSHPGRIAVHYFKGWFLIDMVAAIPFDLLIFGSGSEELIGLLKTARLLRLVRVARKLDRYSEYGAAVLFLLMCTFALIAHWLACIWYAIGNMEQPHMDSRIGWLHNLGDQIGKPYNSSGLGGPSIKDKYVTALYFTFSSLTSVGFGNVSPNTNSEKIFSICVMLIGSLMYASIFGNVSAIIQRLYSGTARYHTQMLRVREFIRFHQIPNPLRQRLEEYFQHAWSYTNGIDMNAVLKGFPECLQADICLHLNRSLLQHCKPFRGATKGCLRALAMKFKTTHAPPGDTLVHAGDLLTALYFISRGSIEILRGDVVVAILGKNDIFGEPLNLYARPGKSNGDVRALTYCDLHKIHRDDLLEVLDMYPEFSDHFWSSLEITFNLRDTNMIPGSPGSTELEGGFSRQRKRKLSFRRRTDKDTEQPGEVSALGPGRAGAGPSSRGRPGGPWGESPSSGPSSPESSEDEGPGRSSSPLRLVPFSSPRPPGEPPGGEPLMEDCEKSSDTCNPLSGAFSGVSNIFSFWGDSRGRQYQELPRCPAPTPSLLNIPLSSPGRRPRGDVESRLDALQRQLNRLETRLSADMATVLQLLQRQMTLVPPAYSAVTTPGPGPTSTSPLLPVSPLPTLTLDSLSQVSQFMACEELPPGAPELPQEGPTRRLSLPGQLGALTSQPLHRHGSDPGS

| Structure (SMILES) | D2/D3, Ki (D2L)/Ki (D3) [1] | Ki [2] | Human mCl [3] | IC50 (hERG cardiac K+ channel) |
| --- | --- | --- | --- | --- |
| COCCc1cc(N2CCN(CC[C@H]3CC[C@H](NC(=O)[C@H]4C[C@@H](O)C4)CC3)CC2)nc(C(C)(C)C)n1 [Compound 18, cis-N-[trans-4-[2-[4-[2-tert-butyl-6-(2-methoxyethyl)pyrimidin-4-yl]piperazin-1-yl]ethyl]cyclohexyl]-3-hydroxy-cyclobutanecarboxamide] | +++ (+++>50) | < 10 nM | + (+: 20-120 μl min^−1 mg^−1) |  |
| COCCc1cc(N2CCN(CC[C@H]3C[C@H](NC(=O)[C@H]4CC[C@H](O)CC4)C3)CC2)nc(C(C)(C)C)n1.O=C(O)C(F)(F)F [Compound 7, Trans-N-[trans-3-[2-[4-[2-tert-butyl-6-(2-methoxyethyl)pyrimidin-4-yl]piperazin-1-yl]ethyl]cyclobutyl]-4-hydroxy-cyclohexanecarboxamide; 2,2,2-trifluoroacetic acid] | +++ (+++>50) | < 10 nM | + (+: 20-120 μl min^−1 mg^−1) |  |
| COCCc1cc(N2CCN(CC[C@H]3CC[C@H](NC(=O)[C@H]4CC[C@@H](O)CC4)CC3)CC2)nc(C(C)(C)C)n1 [Compound 4, cis-N-[trans-4-[2-[4-[2-tert-butyl-6-(2-methoxyethyl)pyrimidin-4-yl]piperazin-1-yl]ethyl]cyclohexyl]-4-hydroxy-cyclohexanecarboxamide] | ++ (++>20) | < 10 nM | ∘ (∘: >120 μl min^−1 mg^−1) |  |
| CC(C)c1cc(N2CCN(CCC3CCC(NC(=O)C4CCC(O)CC4)CC3)CC2)nc(C(C)(C)C)n1 (stereo not shown) [Compound 31, N-[4-[2-[4-(2-tert-butyl-6-isopropyl-pyrimidin-4-yl)piperazin-1-yl]ethyl]cyclohexyl]-4-hydroxy-cyclohexanecarboxamide] | ++ (++>20) | < 10 nM | + (+: 20-120 μl min^−1 mg^−1) |  |
| COCCc1cc(N2CCN(CC[C@H]3CC[C@@H](NC(=O)[C@H]4CC[C@H](O)CC4)CC3)CC2)nc(C(C)(C)C)n1 [Compound 3, trans-N-[cis-4-[2-[4-[2-tert-butyl-6-(2-methoxyethyl)pyrimidin-4-yl]piperazin-1-yl]ethyl]cyclohexyl]-4-hydroxy-cyclohexanecarboxamide] | ++ (++>20) | < 10 nM | + (+: 20-120 μl min^−1 mg^−1) |  |
| COCCc1cc(N2CCN(CC[C@H]3CC[C@@H](NC(=O)[C@H]4C[C@@H](O)C4)CC3)CC2)nc(C(C)(C)C)n1 [Compound 17, cis-N-[cis-4-[2-[4-[2-tert-butyl-6-(2-methoxyethyl)pyrimidin-4-yl]piperazin-1-yl]ethyl]cyclohexyl]-3-hydroxy-cyclobutanecarboxamide] | +++ (+++>50) | < 10 nM | ∘ (∘: >120 μl min^−1 mg^−1) |  |
| COCCc1cc(N2CCN(CC[C@H]3CC[C@@H](NC(=O)C4CC(O)(C(F)(F)F)C4)CC3)CC2)nc(C(C)(C)C)n1 (relative stereo) [Compound 26, N-[cis-4-[2-[4-[2-tert-butyl-6-(2-methoxyethyl)pyrimidin-4-yl]piperazin-1-yl]ethyl]cyclohexyl]-3-hydroxy-3-(trifluoromethyl)cyclobutanecarboxamide] | +++ (+++>50) | < 50 nM | ++ (++: <20 μl min^−1 mg^−1) |  |
| CC(C)(C)c1nc(C2CCC2)cc(N2CCN(CC[C@H]3CC[C@@H](NC(=O)[C@H]4CC[C@@H](O)CC4)CC3)CC2)n1.O=C(O)C(F)(F)F [Compound 15, Cis-N-[cis-4-[2-[4-(2-tert-butyl-6-cyclobutyl-pyrimidin-4-yl)piperazin-1-yl]ethyl]cyclohexyl]-4-hydroxy-cyclohexanecarboxamide; 2,2,2-trifluoroacetic acid] | +++ (+++>50) | < 10 nM | ∘ (∘: >120 μl min^−1 mg^−1) |  |
| CC(C)(C)c1nc(C(F)F)cc(N2CCN(CC[C@H]3CC[C@@H](NC(=O)[C@H]4CC[C@H](O)CC4)CC3)CC2)n1 [Compound 30, Trans-N-[cis-4-[2-[4-[2-tert-butyl-6-(difluoromethyl)pyrimidin-4-yl]piperazin-1-yl]ethyl]cyclohexyl]-4-hydroxy-cyclohexanecarboxamide] | ++ (++>20) | < 10 nM | + (+: 20-120 μl min^−1 mg^−1) |  |
| CC(C)(C)c1nc(C2CCC2)cc(N2CCN(CC[C@H]3CC[C@@H](NC(=O)[C@H]4CC[C@H](O)CC4)CC3)CC2)n1 [Compound 6, trans-N-[cis-4-[2-[4-(2-tert-butyl-6-cyclobutyl-pyrimidin-4-yl)piperazin-1-yl]ethyl]cyclohexyl]-4-hydroxy-cyclohexanecarboxamide] | +++ (+++>50) | < 10 nM | + (+: 20-120 μl min^−1 mg^−1) |  |
| COCCc1cc(N2CCN(CC[C@H]3CC[C@H](NC(=O)[C@H]4CC[C@H](O)CC4)CC3)C[C@H]2C)nc(C(C)(C)C)n1 [Compound 34, trans-N-[trans-4-[2-[(3R)-4-[2-tert-butyl-6-(2-methoxyethyl)pyrimidin-4-yl]-3-methyl-piperazin-1-yl]ethyl]cyclohexyl]-4-hydroxy-cyclohexanecarboxamide] | +++ (+++>50) | < 10 nM | + (+: 20-120 μl min^−1 mg^−1) |  |
| CC(C)(C)c1nc(C2CCC2)cc(N2CCN(CC[C@H]3CC[C@H](NC(=O)[C@H]4CC[C@H](O)CC4)CC3)CC2)n1 [Compound 1, trans-N-[trans-4-[2-[4-(2-tert-butyl-6-cyclobutyl-pyrimidin-4-yl)piperazin-1-yl]ethyl]cyclohexyl]-4-hydroxy-cyclohexanecarboxamide] | +++ (+++>50) | < 10 nM | + (+: 20-120 μl min^−1 mg^−1) | > 10 µM |
| CC(C)(C)c1nc(C2CCC2)cc(N2CCN(CC[C@H]3C[C@H](NC(=O)[C@H]4CC[C@@H](O)CC4)C3)CC2)n1.O=C(O)C(F)(F)F [Compound 16, Cis-N-[trans-3-[2-[4-(2-tert-butyl-6-cyclobutyl-pyrimidin-4-yl)piperazin-1-yl]ethyl]cyclobutyl]-4-hydroxy-cyclohexanecarboxamide; 2,2,2-trifluoroacetic acid] | ++ (++>20) | < 10 nM | ∘ (∘: >120 μl min^−1 mg^−1) |  |
| CC(C)(C)c1nc(C2CCC2)cc(N2CCN(CC[C@H]3C[C@H](NC(=O)[C@H]4C[C@H](O)C4)C3)CC2)n1.O=C(O)C(F)(F)F [Compound 39, trans-N-[trans-3-[2-[4-(2-tert-butyl-6-cyclobutyl-pyrimidin-4-yl)piperazin-1-yl]ethyl]cyclobutyl]-3-hydroxy-cyclobutanecarboxamide; 2,2,2-trifluoroacetic acid] | +++ (+++>50) | < 10 nM | ++ (++: <20 μl min^−1 mg^−1) |  |
